In patent publication US12139520B2 (priority 2020, dated 2024):
Where two headings read alike, the source gives them in different places. Numbered stars: 1 amine (or outer) side, 2 acyl side, 3 side chain; on linkers, the order of the positions; unused ones are H or OH. Bridge positions count the residues as written; N and C are the ends. Square brackets hold non-standard residues; d marks the D form. Peptide text beside a SMILES is read from it. * marks the point of attachment. C20 diacid = O=C(O)CCCCCCCCCCCCCCCCCCC(=O)*; γGlu = O=C(O)[C@H](CCC(=O)[*:2])N[*:1]; Hyp = O=C(O)[C@@H]1C[C@@H](O)CN1

How the values were obtained:
hAMY3 receptor = target: T1, hAMY3 receptor (Homo sapiens, UniProt O60896+P30988); assay: cAMP assay for in vitro receptor activation, hAMY3-R; assay type: cell-based
T1 sequence (P30988 25-474): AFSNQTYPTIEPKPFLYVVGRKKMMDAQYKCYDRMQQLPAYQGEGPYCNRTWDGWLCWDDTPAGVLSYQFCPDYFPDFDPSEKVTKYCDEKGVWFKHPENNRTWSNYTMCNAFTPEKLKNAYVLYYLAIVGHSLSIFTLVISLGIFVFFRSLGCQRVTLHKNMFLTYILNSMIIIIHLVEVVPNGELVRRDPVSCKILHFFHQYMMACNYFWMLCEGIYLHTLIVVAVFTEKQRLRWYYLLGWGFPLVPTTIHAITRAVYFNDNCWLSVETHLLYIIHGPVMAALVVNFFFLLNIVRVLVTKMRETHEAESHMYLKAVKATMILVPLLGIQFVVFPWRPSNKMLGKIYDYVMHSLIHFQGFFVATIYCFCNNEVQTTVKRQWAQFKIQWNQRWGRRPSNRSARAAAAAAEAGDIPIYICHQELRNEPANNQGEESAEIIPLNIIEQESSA
T1 sequence (O60896 24-148 partner): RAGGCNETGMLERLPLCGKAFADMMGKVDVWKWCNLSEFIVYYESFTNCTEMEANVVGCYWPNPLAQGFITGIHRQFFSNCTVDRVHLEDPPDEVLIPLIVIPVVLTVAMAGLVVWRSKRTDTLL
Summary of the method: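 Accumulated cAMP was detected by time-resolved FRET one hour after reagent addition. Beforehand, hAMY3-R-overexpressing monoclonal cells (2000/well, DPBS, 0.05% casein, 0.5 mM IBMX) received graded doses of compound for 30 min at room temperature; human amylin served as positive control.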

[1] = Acute food intake study in lean rats; assay type: in vivo, rat; conditions: single SC injection, lean healthy rats; for Average cumulative food intake: up to 48 h, P < 0.001 vs vehicle
Description: General Protocols for Acute Food Intake Study
The effect on cumulative food intake was measured in male Sprague Dawley rats (6 weeks of age, Taconic, Denmark) following a single dose using a fully automated food intake monitoring system (HM-2; MBRose ApS, Faaborg, Denmark), allowing for advanced synchronous real-time monitoring of food intake behaviour of individual animals. The animals were housed in groups of 4 in a light-, temperature-, and humidity-controlled room (a 12/12 LD cycle, lights on at 02:00 AM; 22±2° C.; 50% relative humidity). The mice had ad libitum access to regular chow diet (Altromin 1324, Brogaarden A/S, Lynge, Denmark) and domestic quality tap water. Mice arrived at day 7, and a minimum of 5 days of habituation to the system was allowed prior to beginning of the study. During these days, the animals were handled daily to accustom them to the experimental paradigm. On the day of dosing, the animals were randomized into groups according to body weight. Animals were fasted for four hours prior to dosing. Animals were dosed SC 30 or 180 min prior to lights out, and food intake data were collected automatically for a total of 48 h post-dosing with automatic food recordings every 5 min.

[2] = Chronic diet-induced obesity (DIO) study in rats; assay type: in vivo, rat; conditions: for Average body weight day 28 (gram): P < 0.001 vs vehicle
Excerpt: General Protocols for Chronic Diet-Induced Obesity (DIO) Study
Sprague-Dawley rats (Taconic, Denmark) arrived at the age of 5 weeks. After one week of acclimation, they were evenly grouped based on their baseline body weight and offered ad libitum access a two-choice diet consisting of chow pellet (Altromin #1324, Brogaarden, Lynge, Denmark) and a high palatable high sugar/fat diet (1:1:1 mixture of Nutella (Ferrero, Alba, Italy), peanut butter (PCD, Rotterdam, Netherlands) and powdered standard chow (Altromin #1324, Brogaarden, Lynge, Denmark); 29.3% fat, 33.2% carbohydrate, and 18% protein) for up to 36 weeks. The rats were pair-housed throughout the study under controlled environmental conditions (12-hour light/dark cycle, lights off at 15:00; 22±1° C.; 50±10% relative humidity). Body weight, food and water intake were monitored daily during the entire period of the study. One day before the experiment, the rats were randomized according to body weight into experimental groups (n=9-10), which received compound or vehicle SC. QD (once daily) for 28 days.

[3] = Physical stability of peptide analogues (Thioflavin T fibrillation); assay type: physicochemical; conditions: maximum ThT signal normalized between hAMY maximum and buffer background; 40° C., shaking, four days; pH 7 per table title
Summary of the method: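 Maximum ThT emission at 480 nm, after LOESS smoothing, is given as percent of the span from buffer background to hAMY. Conditions: 50 mM buffer at pH 4 or 7, 4 μM dye, 40 °C, repeated shaking, readings every 10 min for four days.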

hAM1 receptor = hAM1 receptor (Homo sapiens, UniProt O60895+Q16602); assay: cAMP assay for in vitro receptor activation, hAM1-R; assay type: cell-based
Summary of the method: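 Stable hAM1 cells (monoclonal) plated 8000/well; buffer DPBS, 0.05% casein, 0.5 mM IBMX; cAMP read-out.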

[4] = 1 nmol/kg SC once daily for 28 days
[5] = 3 nmol/kg SC once daily for 28 days
[6] = 10 nmol/kg SC once daily for 28 days

Chain of hAM1 receptor (Q16602 23-461): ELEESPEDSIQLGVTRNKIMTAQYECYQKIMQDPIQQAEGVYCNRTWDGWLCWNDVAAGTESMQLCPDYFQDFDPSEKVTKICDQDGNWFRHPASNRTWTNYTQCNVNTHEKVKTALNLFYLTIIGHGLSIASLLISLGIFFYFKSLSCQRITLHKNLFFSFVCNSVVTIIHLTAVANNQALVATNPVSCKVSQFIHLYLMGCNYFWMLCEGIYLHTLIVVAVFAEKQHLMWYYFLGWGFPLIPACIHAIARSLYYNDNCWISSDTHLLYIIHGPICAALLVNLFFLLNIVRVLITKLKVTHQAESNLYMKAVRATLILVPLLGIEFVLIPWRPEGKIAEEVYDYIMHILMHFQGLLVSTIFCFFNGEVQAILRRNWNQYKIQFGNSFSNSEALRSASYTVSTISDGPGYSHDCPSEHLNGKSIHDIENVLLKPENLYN
Chain of hAM1 receptor (O60895 43-175 partner): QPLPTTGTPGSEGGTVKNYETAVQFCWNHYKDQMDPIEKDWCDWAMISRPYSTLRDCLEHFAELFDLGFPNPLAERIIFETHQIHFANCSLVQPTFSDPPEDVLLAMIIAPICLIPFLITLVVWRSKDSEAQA

| Structure (SMILES) | EC50 (hAMY3 receptor; cAMP assay, hAMY3 receptor, read-out: hAMY3R EC50) [nM] | cumulative food intake, % to vehicle ([1]; 10 nmol/kg) [%] | Average cumulative food intake ([1]; 10 nmol/kg) [g] | cumulative food intake, % to vehicle ([1]; 30 nmol/kg) [%] | Average cumulative food intake ([1]; 30 nmol/kg) [g] | body weight day 28, % to vehicle [2, 4] [%] | Average body weight day 28 (gram) [2, 4] [gram] | body weight day 28, % to vehicle [2, 5] [%] | Average body weight day 28 (gram) [2, 5] [gram] | body weight day 28, % to vehicle [2, 6] [%] | Average body weight day 28 (gram) [2, 6] [gram] | Max ThT signal (%) [3] [%] | EC50 (hAMY3 receptor) [nM] | EC50 (hAM1 receptor) [nM] |
| --- | --- | --- | --- | --- | --- | --- | --- | --- | --- | --- | --- | --- | --- | --- |
| CC[C@H](C)[C@H](NC(=O)[C@H](CC(N)=O)NC(=O)[C@@H](NC(=O)[C@H](CCCNC(=N)N)NC(=O)[C@@H]1CCCN1C(=O)[C@H](C)NC(=O)[C@@H](NC(=O)[C@H](CC(N)=O)NC(=O)[C@H](CC(=O)O)NC(=O)[C@H](CCCCN)NC(=O)[C@H](CC(=O)O)NC(=O)[C@H](CCCCN)NC(=O)[C@H](CC(=O)O)NC(=O)[C@@H](NC(=O)[C@H](Cc1ccccc1)NC(=O)[C@H](CCC(N)=O)NC(=O)[C@H](Cc1ccc(O)cc1)NC(=O)[C@@H](NC(=O)[C@H](CCC(N)=O)NC(=O)[C@H](Cc1c[nH]cn1)NC(=O)[C@H](C)NC(=O)[C@H](CC(C)C)NC(=O)[C@H](CCCNC(=N)N)NC(=O)[C@H](CCC(N)=O)NC(=O)[C@@H](NC(=O)[C@@H](NC(=O)[C@@H]1CSSC[C@H](NC(=O)CN)C(=O)N[C@@H](CCCNC(=N)N)C(=O)N[C@@H](Cc2ccccc2)C(=O)NCC(=O)N[C@@H]([C@@H](C)O)C(=O)N1)[C@@H](C)O)C(C)C)[C@@H](C)CC)[C@@H](C)O)C(C)C)[C@@H](C)O)C(=O)NCC(=O)N1CCC[C@H]1C(=O)N[C@@H](CCC(N)=O)C(=O)NCC(=O)N1C[C@H](O)C[C@H]1C(N)=O [compound 46] (H-GCRFGTCTVQRLAHQIYQFTDKDKDNVAPRTNIGPQG[Hyp]-NH2; disulfide 2-7; N-terminus assumed) | 0.011 | 52.48 | 23.3 | 24.10 | 10.7 | 94.13 | 674 | 86.59 | 620 | 86.31 | 618 | 5.800 | – | – |
| CC[C@H](C)[C@H](NC(=O)[C@H](CCC(N)=O)NC(=O)[C@H](CCC(=O)O)NC(=O)[C@H](C)NC(=O)[C@H](CC(C)C)NC(=O)[C@H](CCCNC(=N)N)NC(=O)[C@H](CCC(N)=O)NC(=O)[C@@H](NC(=O)[C@@H](NC(=O)[C@@H]1CSSC[C@H](NC(=O)[C@H](CCCCN)NC(=O)CC[C@H](NC(=O)CCCCCCCCCCCCCCCCCCC(=O)O)C(=O)O)C(=O)N[C@@H](CC(N)=O)C(=O)N[C@@H]([C@@H](C)O)C(=O)N[C@@H](C)C(=O)N[C@@H]([C@@H](C)O)C(=O)N1)[C@@H](C)O)C(C)C)C(=O)N[C@@H](C)C(=O)N[C@@H](CCC(N)=O)C(=O)N[C@@H](Cc1ccccc1)C(=O)N[C@H](C(=O)N[C@@H](CC(=O)O)C(=O)N[C@@H](CCCCN)C(=O)N[C@@H](CC(=O)O)C(=O)N[C@@H](CCCCN)C(=O)N[C@@H](CC(=O)O)C(=O)N[C@@H](CC(N)=O)C(=O)N[C@H](C(=O)N[C@@H](C)C(=O)N1CCC[C@H]1C(=O)N1CCC[C@H]1C(=O)N[C@H](C(=O)N[C@@H](CC(N)=O)C(=O)N[C@H](C(=O)NCC(=O)N[C@@H](CO)C(=O)N[C@@H](CC(N)=O)C(=O)NCC(=O)N1C[C@H](O)C[C@H]1C(N)=O)C(C)C)[C@@H](C)O)C(C)C)[C@@H](C)O [compound 78] ({C20 diacid-γGlu}-KCNTATCTVQRLAEQIAQFTDKDKDNVAPPTNVGSNG[Hyp]-NH2; disulfide 2-7) | – | 33.66 | 13.7 | – | – | – | – | – | – | 88.53 | 687 | – | 0.014 | > 5000 |
